Assay [1] has as its target T1, DNA repair protein RAD52 homolog (Homo sapiens, UniProt P43351).
T1 sequence (P43351 whole entry): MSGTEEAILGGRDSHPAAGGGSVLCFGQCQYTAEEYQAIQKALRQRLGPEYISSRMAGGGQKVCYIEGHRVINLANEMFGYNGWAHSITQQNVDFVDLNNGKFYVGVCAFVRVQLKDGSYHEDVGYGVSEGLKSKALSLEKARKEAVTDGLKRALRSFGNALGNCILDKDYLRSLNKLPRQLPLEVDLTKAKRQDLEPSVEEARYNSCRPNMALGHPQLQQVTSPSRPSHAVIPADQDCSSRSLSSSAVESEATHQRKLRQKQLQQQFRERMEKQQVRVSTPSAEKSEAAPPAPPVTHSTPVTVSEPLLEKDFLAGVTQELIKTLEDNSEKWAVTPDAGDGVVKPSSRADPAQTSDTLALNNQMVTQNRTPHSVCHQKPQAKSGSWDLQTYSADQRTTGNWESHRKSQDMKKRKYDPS
It counts as functional, biochemical.

The target in assay [2] is T2, DNA dC->dU-editing enzyme APOBEC-3G (Homo sapiens, UniProt Q9HC16). The assay is described as follows: Dose Response confirmation of small molecule APOBEC3G DNA Deaminase Inhibitors via a fluorescence-based single-stranded DNA deaminase assay. [Related pubchem assays (depositor defined):AID493012, AID493028]. It is filed as functional.
Assay [3] addresses T3, CAAX prenyl protease 2 (Saccharomyces cerevisiae S288c, UniProt Q03530).
T3 sequence (Q03530 whole entry): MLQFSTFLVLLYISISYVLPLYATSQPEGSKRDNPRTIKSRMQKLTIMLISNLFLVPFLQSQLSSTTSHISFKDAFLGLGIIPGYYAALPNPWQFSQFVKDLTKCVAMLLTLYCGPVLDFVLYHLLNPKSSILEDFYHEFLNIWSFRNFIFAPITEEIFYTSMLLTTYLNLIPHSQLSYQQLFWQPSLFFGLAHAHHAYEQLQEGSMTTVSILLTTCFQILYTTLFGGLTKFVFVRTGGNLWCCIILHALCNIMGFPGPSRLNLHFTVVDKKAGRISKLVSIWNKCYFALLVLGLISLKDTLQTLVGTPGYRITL
It counts as biochemical.

For assay [4], the target named is Alkaline phosphatase, placental type (Homo sapiens, UniProt P05187). Nature of the assay: PLAP enzyme inhibitors, confirmation, biochemical, luminescence (AID 1512). It counts as functional.
The target in assay [5] is T4, Streptokinase A (Streptococcus pyogenes serotype M1, UniProt P10520).
T4 sequence (P10520 whole entry): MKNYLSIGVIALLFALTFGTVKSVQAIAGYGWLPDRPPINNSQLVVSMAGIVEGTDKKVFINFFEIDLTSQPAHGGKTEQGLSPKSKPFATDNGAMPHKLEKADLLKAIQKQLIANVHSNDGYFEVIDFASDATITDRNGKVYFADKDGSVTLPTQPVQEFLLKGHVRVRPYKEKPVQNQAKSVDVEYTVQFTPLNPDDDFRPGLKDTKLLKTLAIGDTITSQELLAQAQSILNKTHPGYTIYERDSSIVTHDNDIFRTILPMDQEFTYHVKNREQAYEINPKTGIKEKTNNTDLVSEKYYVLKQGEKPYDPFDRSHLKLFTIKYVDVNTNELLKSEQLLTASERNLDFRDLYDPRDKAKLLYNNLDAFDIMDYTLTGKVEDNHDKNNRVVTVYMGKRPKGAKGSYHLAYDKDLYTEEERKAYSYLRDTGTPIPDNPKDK
Nature of the assay: S. pyogenes streptokinase expression inhibitors, potency, dose response, plasminogen activation absorbance, OD405 (AID 1914).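 Further: secreted streptokinase activity via plasminogen activation per viability signal from cell pellet.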 It is filed as functional, Streptococcus pyogenes M1 GAS.

For assay [6], the system named is Streptococcus. Nature of the assay: Group A Streptococcus viability loss, dose response, counter-screen for streptokinase expression inhibitor project, luminescence, BacTiterGlo (AID 1915).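 Further: potency for reduction of bacterial viability or growth.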 It is filed as functional, organism-based. A general note: The purpose of a counterscreen is to sort out artefacts and off-target activity.
Assay [7] has as its system Streptococcus sp. 'group A'. The assay is described as follows: growth inhibition of control SK(-) GAS strain, dose response, counter-screen for streptokinase expression inhibitor project, luminescence, kanamycin, BacTiterGlo, confirmation (AID 1900). It counts as functional, organism-based.
The target in assay [8] is T5, Hexokinase (Trypanosoma brucei, UniProt Q38C41).
T5 sequence (Q38C41 whole entry): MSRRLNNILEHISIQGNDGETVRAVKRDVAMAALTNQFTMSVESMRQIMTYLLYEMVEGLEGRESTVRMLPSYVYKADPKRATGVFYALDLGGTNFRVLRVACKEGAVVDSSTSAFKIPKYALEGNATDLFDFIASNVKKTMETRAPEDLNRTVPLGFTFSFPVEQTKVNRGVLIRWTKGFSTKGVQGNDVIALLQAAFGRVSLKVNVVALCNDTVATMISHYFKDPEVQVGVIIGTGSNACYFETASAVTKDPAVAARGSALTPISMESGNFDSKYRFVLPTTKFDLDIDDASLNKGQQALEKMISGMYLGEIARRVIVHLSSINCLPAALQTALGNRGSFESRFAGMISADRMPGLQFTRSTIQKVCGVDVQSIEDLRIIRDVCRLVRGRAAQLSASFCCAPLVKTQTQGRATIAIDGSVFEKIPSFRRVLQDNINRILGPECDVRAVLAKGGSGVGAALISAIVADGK
Nature of the assay: Confirmation assay for inhibitors of Trypanosoma brucei hexokinase 1-Analogue-first series. [Related pubchem assays (depositor defined):AID1430, AID1632, AID2516, AID2560, AID2579, AID2600, AID449725, AID492951]. It counts as functional.

Assay [9] addresses DNA dC->dU-editing enzyme APOBEC-3A (Homo sapiens, UniProt P31941). The assay is described as follows: Dose Response confirmation of small molecule APOBEC3A DNA Deaminase Inhibitors via a fluorescence-based single-stranded DNA deaminase assay. [Related pubchem assays (depositor defined):AID493011, AID493024]. It is filed as functional.
Assay [10] concerns the target T2, DNA dC->dU-editing enzyme APOBEC-3G. It counts as functional.
Assay [11] deals with HEK293. Nature of the assay: NOD2 signaling inhibitors in MDP-stimulated cells, cell-based, uHTS, luminescence (AID 2001). It counts as functional. The note with it: Homo sapiens.
Assay [12] relates to HEK293. Nature of the assay: cells. It is filed as functional, cell-based. The note with it: Homo sapiens.
In assay [13] the test system is HEK293. Nature of the assay: cells. The conditions noted are these: Homo sapiens. It counts as functional, cell-based. This is another data set of the same source.
The test system of assay [14] is HEK293. Nature of the assay: NOD1 signaling inhibitors, primary screen, cell-based, luminescence, uHTS (AID 1578). It is filed as functional. The conditions noted are these: Homo sapiens.
Assay [15] concerns HEK293. Nature of the assay: cells. The conditions noted are these: Homo sapiens.
Assay [16] has as its target Tumor necrosis factor (Homo sapiens, UniProt P01375). Nature of the assay: TNFa-triggered NF-kB activation inhibitors, SAR follow-up, cell-based, revised (AID 2337). It is filed as functional.
Assay [17] concerns the target T6, Nucleotide-binding oligomerization domain-containing protein 1 (Homo sapiens, UniProt Q9Y239).
T6 sequence (Q9Y239 whole entry): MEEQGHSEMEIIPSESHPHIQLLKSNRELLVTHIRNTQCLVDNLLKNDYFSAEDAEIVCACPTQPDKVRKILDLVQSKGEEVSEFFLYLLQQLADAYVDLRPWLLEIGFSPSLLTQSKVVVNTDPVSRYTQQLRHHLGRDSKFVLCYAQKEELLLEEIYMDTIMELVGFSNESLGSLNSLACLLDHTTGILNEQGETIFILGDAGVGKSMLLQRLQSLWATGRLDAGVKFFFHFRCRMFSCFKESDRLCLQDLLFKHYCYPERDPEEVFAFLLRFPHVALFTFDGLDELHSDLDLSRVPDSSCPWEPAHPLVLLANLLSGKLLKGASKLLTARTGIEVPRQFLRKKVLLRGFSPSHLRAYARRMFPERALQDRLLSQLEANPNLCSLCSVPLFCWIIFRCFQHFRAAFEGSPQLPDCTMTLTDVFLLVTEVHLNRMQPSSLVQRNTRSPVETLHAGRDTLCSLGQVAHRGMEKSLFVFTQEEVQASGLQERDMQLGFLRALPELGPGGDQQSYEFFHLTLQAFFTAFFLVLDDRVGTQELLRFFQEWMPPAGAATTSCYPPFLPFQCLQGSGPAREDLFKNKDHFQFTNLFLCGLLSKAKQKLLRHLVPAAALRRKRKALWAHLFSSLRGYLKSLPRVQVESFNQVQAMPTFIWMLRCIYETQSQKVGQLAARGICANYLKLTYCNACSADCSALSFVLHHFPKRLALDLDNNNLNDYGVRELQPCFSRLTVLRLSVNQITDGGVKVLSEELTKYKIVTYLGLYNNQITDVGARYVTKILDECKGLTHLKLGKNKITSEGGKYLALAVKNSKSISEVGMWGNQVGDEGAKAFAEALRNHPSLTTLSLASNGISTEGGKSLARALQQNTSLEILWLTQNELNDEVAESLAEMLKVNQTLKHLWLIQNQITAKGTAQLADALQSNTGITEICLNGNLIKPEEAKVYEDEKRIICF
Nature of the assay: NOD1 signaling inhibitors, SAR follow-up, revised (AID 2333). It is filed as functional.

The subject of assay [18] is T-cell. Nature of the assay: inhibitors of CD8+ T cell–vesicle binding, dose response, mouse 2C CD8+ T cells, flow cytometry (AID 485284). It is filed as functional. For orientation: In flow cytometry, cells or beads pass a laser one at a time.
Assay [19] deals with T7, Alkaline phosphatase, tissue-nonspecific isozyme (Homo sapiens, UniProt P05186).
T7 sequence (P05186 whole entry): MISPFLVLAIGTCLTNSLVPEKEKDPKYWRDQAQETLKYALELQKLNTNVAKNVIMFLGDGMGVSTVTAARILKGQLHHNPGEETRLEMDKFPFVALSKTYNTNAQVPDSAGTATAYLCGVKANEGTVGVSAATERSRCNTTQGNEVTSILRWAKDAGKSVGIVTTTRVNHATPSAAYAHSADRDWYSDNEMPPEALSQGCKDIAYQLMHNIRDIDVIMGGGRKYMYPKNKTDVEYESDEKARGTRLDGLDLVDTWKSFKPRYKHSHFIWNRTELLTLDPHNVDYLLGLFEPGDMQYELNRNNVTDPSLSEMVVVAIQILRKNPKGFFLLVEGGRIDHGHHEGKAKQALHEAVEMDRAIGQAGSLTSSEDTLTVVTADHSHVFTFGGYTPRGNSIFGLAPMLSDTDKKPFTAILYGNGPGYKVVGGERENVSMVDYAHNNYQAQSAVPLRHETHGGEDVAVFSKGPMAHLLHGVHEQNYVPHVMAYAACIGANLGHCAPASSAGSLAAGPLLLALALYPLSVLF
The assay is described as follows: human TNAP enzyme inhibitors, SAR follow-up, biochemical, luminescent, dose response (AID 1056).

Assay [20] concerns the target T8, Caspase-6 (Homo sapiens, UniProt P55212).
T8 sequence (P55212 whole entry): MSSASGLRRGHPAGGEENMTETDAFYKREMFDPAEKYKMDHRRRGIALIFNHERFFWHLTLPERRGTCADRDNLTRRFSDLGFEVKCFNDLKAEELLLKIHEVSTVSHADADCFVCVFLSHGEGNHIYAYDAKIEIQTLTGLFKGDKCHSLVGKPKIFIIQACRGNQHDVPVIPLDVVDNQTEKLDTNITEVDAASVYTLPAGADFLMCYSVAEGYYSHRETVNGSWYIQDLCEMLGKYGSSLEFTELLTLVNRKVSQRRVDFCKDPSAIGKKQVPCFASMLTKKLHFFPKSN
Nature of the assay: human caspase-6 inhibitors, dose response, biochemical, VEID-R110 fluorescence, cherry-pick (AID 720632).

SMILES strings stand for the structures. The source made the active and inactive calls. Some results are limits rather than exact numbers.

DNA dC->dU-editing enzyme APOBEC-3A, sequence (P31941 whole entry): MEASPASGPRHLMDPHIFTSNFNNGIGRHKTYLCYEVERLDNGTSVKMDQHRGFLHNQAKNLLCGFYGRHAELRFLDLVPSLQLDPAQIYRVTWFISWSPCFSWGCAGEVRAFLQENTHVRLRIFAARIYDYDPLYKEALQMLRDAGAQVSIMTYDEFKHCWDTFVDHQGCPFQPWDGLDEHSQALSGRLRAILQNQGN
T2 sequence (Q9HC16 whole entry): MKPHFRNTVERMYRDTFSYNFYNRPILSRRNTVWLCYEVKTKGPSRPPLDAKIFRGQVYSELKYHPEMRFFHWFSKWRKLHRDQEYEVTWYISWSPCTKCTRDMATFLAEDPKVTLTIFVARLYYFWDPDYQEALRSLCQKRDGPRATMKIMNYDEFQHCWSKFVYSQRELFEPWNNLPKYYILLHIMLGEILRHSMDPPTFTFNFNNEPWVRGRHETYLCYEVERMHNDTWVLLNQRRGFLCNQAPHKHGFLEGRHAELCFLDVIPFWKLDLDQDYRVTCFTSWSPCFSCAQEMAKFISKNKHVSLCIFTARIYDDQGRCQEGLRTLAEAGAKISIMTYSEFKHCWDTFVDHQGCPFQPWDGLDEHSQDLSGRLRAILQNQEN
Alkaline phosphatase, placental type, sequence (P05187 whole entry): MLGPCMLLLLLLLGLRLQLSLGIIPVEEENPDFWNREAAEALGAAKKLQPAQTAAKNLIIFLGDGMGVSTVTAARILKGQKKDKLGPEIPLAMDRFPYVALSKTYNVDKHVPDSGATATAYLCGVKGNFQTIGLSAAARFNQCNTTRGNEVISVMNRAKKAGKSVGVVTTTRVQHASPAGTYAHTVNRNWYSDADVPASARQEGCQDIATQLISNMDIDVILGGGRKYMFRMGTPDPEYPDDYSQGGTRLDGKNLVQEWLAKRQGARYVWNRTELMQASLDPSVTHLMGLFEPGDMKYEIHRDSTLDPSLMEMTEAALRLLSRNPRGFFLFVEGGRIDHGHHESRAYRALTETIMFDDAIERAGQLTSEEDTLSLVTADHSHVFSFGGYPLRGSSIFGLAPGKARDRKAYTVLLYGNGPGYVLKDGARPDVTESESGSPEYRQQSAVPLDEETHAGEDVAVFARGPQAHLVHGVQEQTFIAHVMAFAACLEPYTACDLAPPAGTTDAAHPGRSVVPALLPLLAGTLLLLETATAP
Tumor necrosis factor, sequence (P01375 whole entry, the tested form may be a part): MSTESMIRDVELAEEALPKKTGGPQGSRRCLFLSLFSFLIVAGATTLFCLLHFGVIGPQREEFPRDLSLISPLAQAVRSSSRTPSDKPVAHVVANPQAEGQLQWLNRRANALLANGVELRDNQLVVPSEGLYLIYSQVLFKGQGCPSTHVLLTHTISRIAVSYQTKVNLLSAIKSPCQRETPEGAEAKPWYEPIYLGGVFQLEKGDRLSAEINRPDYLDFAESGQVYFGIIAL

With `CCN(CC)CCn1c2ccccc2c2nnc(S)nc21`, the AC50 (in general, the concentration at which the activity in the assay is half-maximal) in assay [1] was 5.41 µM (active). Further, the IC50 (usually the concentration that gives 50% inhibition) in assay [2] was 19.5 µM (active).
`CCOc1ccc(N(Cc2ccc(OC)cc2)C(=O)c2ccco2)cc1`: the concentration at half-maximal activity (AC50) in assay [3] was 4.23 µM (active).
Consider `CCCCN=C(S)NNC(=O)c1nn(C)c(C)c1Cl`, for which, in assay [4], the IC50 is > 100 µM (inactive).
Turning to `Cc1cc(Cl)c2oc(C(=O)N3CCN(C(=O)c4ccco4)CC3)c(C)c2c1`, the EC50 (usually the concentration needed to bring the measured effect to its halfway point) in [5] is > 150 µM (not active); in assay [6], 24.7 µM (active); in assay [7], 3.4 µM (active). In [3], the AC50 was 21.7 µM (active).
`COc1ccc(C(=O)N(C)c2cc(Cl)ccc2C(=O)O)cc1`: the IC50 in [8] was > 25 µM (inactive).
Take `CCN1C(NCCCOC(C)C)=N[C@@H](c2ccccc2)[C@H](C(=O)OC)[C@H]1C`: the figures for the IC50 in [9] and in assay [10] were 3.99 µM (active) and 7.19 µM (active), respectively.
`Oc1nc(/C=C/c2ccccc2C(F)(F)F)cc(C(F)(F)F)n1`: the IC50 in [11] was 13.3 µM (inactive); in [12], > 20 µM (inactive); in [13], > 20 µM (inactive); in assay [15], > 20 µM (inactive); in assay [16], 11.3 µM (active); in assay [17], 3.82 µM (active). In addition, the EC50 in assay [14] was 9.79 µM (active).
Regarding `Cc1ccc(N2CC(C(=O)NC3=NCCS3)CC2=O)cc1` (stereo not given), the concentration for a half-maximal effect (EC50) in assay [18] is 22.1 µM (active).
Regarding `CCCCN1C(=O)/C(=N\Nc2ccccc2C(F)(F)F)c2ccccc21`, the 50% inhibitory concentration (IC50) was 73.8 µM (active) in assay [19] and 49.7 µM (active) in assay [4].
As to `O=C(O)c1ccc2c3c(cccc13)C(=O)N(c1ccccc1)C2=O`, the results for the IC50 in [9] and in assay [10] were 14 µM (active) and 37.5 µM (active), respectively. For the same compound, the AC50 in assay [20] is 11.9 µM (active).
On to `COCCCN1CCc2nc(S)nc(O)c2C1`, for which, in [18], the EC50 was 0.594 µM (active).
With `COc1ccc(C(=O)Nc2cnccc2C(=O)O)cc1`, the IC50 in [8] was > 25 µM (inactive).
In the case of `O=C1Nc2ccccc2/C1=C\NCCc1ccc(O)c(O)c1`, the IC50 is 2.54 µM (active) in [19] and 0.374 µM (active) in [4].
For the compound `Cc1nc2nc(C)n(-c3ccccc3)c2s1`, the half-inhibitory concentration (IC50) in assay [9] was 17.7 µM (active); in assay [10], 6.72 µM (active).

These data come from ChEMBL document CHEMBL1201862, “PubChem BioAssay data set” (2004).
